Results published in paper PMC3408453, “A Foldamer-Dendrimer Conjugate Neutralizes Synaptotoxic β-Amyloid Oligomers” (PLoS ONE, 2012).
Values joined by “and” are separate entries in the source; they are usually repeats but may differ in a detail not shown here. Identical values can stand only once.

How the values were obtained:
Aβ oligomers [1] = biological target: T1, Aβ oligomers (Homo sapiens, UniProt P05067); assay: Transmission electron microscopy of Aβ oligomers with ligand; conditions: 72 µM Aβ oligomer + 36 µM ligand
T1 construct: a depsipeptide derivative of Aβ(1–42) was utilized; made in house; host or cells: chemical peptide synthesis (no expression host)
Experimental: The concentration-dependent increase of the particle size described above raised the question if this phenomenon was linked to an accelerated fibrillization or to any form of conformational remodeling of the Aβ oligomers. […] The shape of the aggregates was unequivocally different from that of the mature fibrils.
Figure 8 Affinity precipitation as detected by TEM. (A) TEM image of the 72 µM Aβ oligomer. (B) TEM image of the 72 µM Aβ oligomer upon addition of 36 µM 7.
Oligomer solution was placed on formvar-carbon-coated 400-mesh copper grids (Electron Microscopy Sciences, Washington, PA) and stained negatively with uranyl acetate. The aggregates were characterized by TEM on a Philips CM 10 transmission electron microscope (FEI Company, Hillsboro, Oregon, USA) operating at 100 kV. Images were taken with a Megaview II Soft Imaging System, routinely at magnifications of ×46000 and ×64000, and analyzed with an AnalySis® 3.2 software package (Soft Imaging System GmbH, Münster, Germany).

Aβ oligomers [2] = biological target: T1, Aβ oligomers; assay: Isothermal titration calorimetry (ITC) with Aβ oligomers; type: binding; conditions: 72 μM Aβ oligomer, 288 K
Experimental: (§1) Binding of 7 to the Aβ oligomers was monitored by means of isothermal titration calorimetry (ITC). […] The titrations were run at 288 K in order to improve the signal to noise ratio, and just above the precipitation limit as the ITC method is sensitive to the thermal noise caused by the stirring of large particles. […] These values strongly supported tight binding between the Aβ oligomer species and 7.
Isothermal titrations were performed with a Microcal VP-ITC microcalorimeter. The binding experiments were performed in PBS pH 7.4. The buffer solution was degassed. The concentrations of the ligands and Aβ were corrected for the material content. In individual titrations, 10 μL of ligand was injected from the computer-controlled 300-μL microsyringe at intervals of 300 s into the Aβ oligomer solution dissolved in the same buffer as the ligand. The microsyringe stirring was set to 295 rpm. All measurements were made at 288 K. The Aβ concentrations in the cell were either 72 μM or 36 μM, and the concentrations of 7 were 175 μM and 222 μM respectively. The total ligand concentration was set in the syringe so that the titration stopped when the precipitation became excessive. Control experiments were performed by injecting the ligand into a cell containing buffer with no target, and the heats of dilution were subtracted from those measured in the presence of Aβ. Titrations were also performed with buffer in the syringe and Aβ oligomer sample in the cell to check for the heat response of Aβ dilution itself. The dilution heat of the Aβ oligomer samples was constant and negligible. Since the target is inherently inhomogeneous, and an a priori model of the binding events is not available,. the experimental data were fitted to the two independent site binding model by using a nonlinear least-squares procedure, with ΔHb, ΔHb', Ka, Ka' (association constants), N and N' (number of binding sites for monomer), as adjustable parameters. The exothermic peaks appearing after the fully precipitated phase was reached, were omitted from the regression.

oligomeric Aβ = biological target: T2, oligomeric Aβ (Homo sapiens, UniProt P05067); assay: ThT binding experiment on oligomeric Aβ; conditions: oligomeric Aβ + ligand 1∶1, up to 24 h
T2 construct: a depsipeptide derivative of Aβ(1–42) was utilized; made in house; host or cells: chemical peptide synthesis (no expression host)
Excerpt: The data on 7 were in agreement with its largely helical structure, also found via NMR. […] This was in accord with the NMR results obtained for the recognition segment 1. The secondary structure was probed also with ThT binding experiments (Figure 9B). Pure Aβ oligomers bound ThT at a certain level. This was in accord with the staining with antibody OC; both are capable of recognizing the fibrillar (or protofibrillar) oligomers. […] The latter process is similar to affinity precipitation.
(A) Observed ellipticities in ECD for 36 μM Aβ oligomer (thick black), 9 μM 7 (thin black), and 36 μM Aβ +9 μM 7 (thick dashed). The hypothetical sum of the ECD curves of the pure samples (thin dashed). (B) ThT binding experiment carried out on 36 µM oligomeric Aβ (white bars) and on 36 µM oligomeric Aβ +7 1∶1 mixtures. The relative fluorescence values were monitored up to 24 h.
ThT (Sigma-Aldrich) was dissolved in 50 mM NaH2PO4/Na2HPO4 buffer (pH = 7.0) to a final concentration of 25 μM. […] Two identical 50 μM Aβ oligomer samples were prepared and one of them was mixed with 7 to a final concentration of 50 μM, and the ThT signal intensity was monitored up to further 24 h. […] ThT fluorescence was measured on a plate reader at […] and λem = 480 nm. Data mean values and S.D. were calculated from three parallel measurements.

monomeric Aβ = biological target: T3, monomeric Aβ (Homo sapiens, UniProt P05067); assay: ITC titration with monomeric Aβ sample; type: binding
T3 construct: In this work, a depsipeptide derivative of Aβ(1–42) was utilized; made in house; host or cells: chemical peptide synthesis (no expression host)

Aβ oligomers [3] = biological target: T1, Aβ oligomers; assay: Ligand-induced precipitation during ITC titration, followed by DLS; conditions: 72 μM Aβ oligomer
Experimental: as §1
For DLS measurements, 500 µL Aβ(1–42) solution (c = 72 µM) was prepared in PBS, and placed in a low–volume sizing cell. Size distribution was measured at 25°C on a Malvern Zetasizer Nano ZS Instrument (Malvern Instruments Ltd. Worcestershire, UK) equipped with a He-Ne laser (633 nm) by means of Non-Invasive Back Scatter (NIBS®) technology, which involves detection of the scattered light at an angle of 173°. A titration routine was formulated consisting of 12 independent measurements with a 2-min delay after each. The calculated amount of 7 solution was added to the Aβ after every second measurement. During the titration, the molar quantity of 7 varied between 0–35 µM. For a single measurement, the correlation function and distribution of the apparent hydrodynamic diameter (dh) over the scattered intensity of the particles were determined on the basis of 14 scans. […]

## N=C(N)NCCC[C@@H](CC(=O)N[C@H]1CCCC[C@@H]1C(=O)N[C@H]1CCCC[C@@H]1C(=O)N[C@@H](CC(=O)O)CC(=O)N[C@H]1CCCC[C@@H]1C(=O)NCC(=O)NCC(=O)N[C@@H](CSC1CC(=O)N(CCC(=O)NCCNC(=O)CCN(CCC(=O)NCCNC(=O)CCN2C(=O)CC(SC[C@H](NC(=O)CNC(=O)CNC(=O)[C@H]3CCCC[C@@H]3NC(=O)C[C@H](CC(=O)O)NC(=O)[C@H]3CCCC[C@@H]3NC(=O)[C@H]3CCCC[C@@H]3NC(=O)C[C@H](CCCNC(=N)N)NC(=O)[C@H]3CCCC[C@@H]3N)C(N)=O)C2=O)CCN(CCC(=O)NCCNC(=O)CCN2C(=O)CC(SC[C@H](NC(=O)CNC(=O)CNC(=O)[C@H]3CCCC[C@@H]3NC(=O)C[C@H](CC(=O)O)NC(=O)[C@H]3CCCC[C@@H]3NC(=O)[C@H]3CCCC[C@@H]3NC(=O)C[C@H](CCCNC(=N)N)NC(=O)[C@H]3CCCC[C@@H]3N)C(N)=O)C2=O)CCC(=O)NCCNC(=O)CCN2C(=O)CC(SC[C@H](NC(=O)CNC(=O)CNC(=O)[C@H]3CCCC[C@@H]3NC(=O)C[C@H](CC(=O)O)NC(=O)[C@H]3CCCC[C@@H]3NC(=O)[C@H]3CCCC[C@@H]3NC(=O)C[C@H](CCCNC(=N)N)NC(=O)[C@H]3CCCC[C@@H]3N)C(N)=O)C2=O)C1=O)C(N)=O)NC(=O)[C@H]1CCCC[C@@H]1N (some centres unmarked) [Compound 7]
Aβ oligomers [1]
  TEM: effect on Aβ oligomer particle morphology: caused association of the spherical oligomers a few nm in size into bundles of aggregates in the μm range
Aβ oligomers [2]
  N (ITC stoichiometry, number of binding sites for monomer; first or single stage): 0.041±0.00089 and 0.041
  N' (ITC stoichiometry, lower affinity interaction): 0.18±0.002 and 0.18
  ΔHb (ITC; first binding step for 7, single stage for 8): 7.24 ± 0.05 kcal/mol
  ΔHb' (ITC, lower affinity interaction): 2.58 ± 0.02 kcal/mol
Oligomeric Aβ
  Effect on ThT binding of Aβ oligomers: no significant effect on the ThT binding
Monomeric Aβ
  Binding in ITC titration with monomeric Aβ sample: did not exhibit submicromolar binding
Aβ oligomers [3]
  Concentration-dependent precipitation of Aβ oligomers during titration (ITC/DLS): the precipitation started just before the equivalence point of the second stage
